Assays:
Format in all cases: cell-based, rat
[1] = test system: myoblasts isolated from the WT EOMs; experiment: EdU proliferation of EOM-derived myoblasts treated with TSHR antagonist; details: 10 μM, 2 days, serum-free, EdU pulse 24 h, vs DMSO
Procedure: To evaluate the functional importance of the expression of TSHR in the MSCs of the EOMs, the myoblasts were isolated from the WT EOMs and treated with a selective antagonist of the TSH receptor, ML224 (Neumann et al., 2014).
(§1) For this, the myoblasts derived from MSC were treated with 10 μM of ML224 (HY12381-S, CliniSciences) for 2 days (proliferation) or 7 days (differentiation) or 20 μM of forskolin (F3917, Sigma-Aldrich) (following experiment) only for 48 h. The control cells were treated with DMSO (D8418, Sigma Aldrich) as a vehicle for ML224 and forskolin.
The proliferation was measured after 24 h of culture by adding to the culture medium a pulse of […] of 5-ethynyl-20-deoxyuridine (EdU) for 24 h (EdU Click-iT PLUS Kit C10640, Life Technologies).
This experiment is carried out under serum-free conditions in order to prevent any stimulation of TSHR by the presence of TSH in the serum, which explains the lowest proliferative capacity of the myoblasts of the EOMs treated with the vehicle, relative to the data presented above (FIG. 3I).

[2] = test system: myoblasts isolated from the WT EOMs; experiment: Myogenic differentiation (MF20 staining, fusion index) of EOM myoblasts; details: 10 μM, 7 days, vs DMSO
Procedure: For this, the cells were fixed with 4% PFA for 10 minutes at 4° C. and permeabilized with 0.5% Triton in 1×PBS for 6 minutes. After blocking with 10% BSA for 30 minutes at room temperature, the cells were incubated O/N at 4° C. with the following primary antibodies: Pax7 (Santa Cruz Biotechnology, sc-81648), MyoD (Dako, clone 5.8A, M3512), ki67 (Abcam, sp6 ab16667), sarcomeric myosin heavy chain (MF20, DSHB, AB_2147781).
The cell suspension was passed through cell filters and centrifuged at 600 g/minute for 5 minutes, at 4° C. The supernatant was removed and the cell pellet was resuspended in 20% fetal bovine serum (Cat #S1810-500 Dominique Dutscher) in DMEM (Cat #41966-029 Gibco) supplemented by 25 ng/mL of bFGF (RP4037, Sigma-Aldrich) with […] of penicillin/streptomycin (354234, Life Sciences) covered with matrigel (Sarstedt, #94.6140.802). The cells were grown for 48 hours to evaluate the proliferation. After 48 h of proliferation, the cells were cultured for 5 days in 5% fetal bovine serum to induce differentiation.
as §1

[3] = test system: Cdkn1a (p21) and Cdkn2a (p16) expression in EOM-derived myoblasts; experiment: qPCR of senescence markers in EOM-derived myoblasts; details: EOM satellite cells in culture, 10 μM, vs DMSO
Procedure: The absence of Cdkn1a and Cdkn2a transcripts is also validated as well as the specific expression of TSHR on muscle satellite cells freshly isolated from EOMs by qRT-PCR (FIG. 6D): The RNA is extracted using the total RNA isolation kit RNAqueous-Micro (Invitrogen) and back-transcribed using SuperScript™ III reverse transcriptase (Invitrogen, 18080093) according to the manufacturer's instructions.
The qPCR is carried out using the StepOnePlus real-time PCR system (Applied Biosystems) and SYBR Green detection tools (Applied Biosystems).
The results are reported as relative gene expression (2-DDCT) using the vehicle-treated cells or the extra-ocular derived myoblasts as a reference. Gene expression is normalized on the expression levels of β-actin.
as §1

SMILES: COc1ccc(C2Nc3ccccc3C(=O)N2Cc2ccco2)cc1COc1c(C)cc(NC(C)=O)cc1C (centres unmarked) [ML224]
- Proliferative myoblasts (Pax7+/MyoD+/EdU+ cells) relative to vehicle [1]: significant decrease
- Differentiation / formation of myotubes [2]: differentiation defects
- Fusion index compared to vehicle control [2]: significant reduction
- Expression of Cdkn1a (p21) [3]: induced the expression
- Expression of Cdkn2a (p16) [3]: induced the expression

Source: patent US20240343779A1, “PHARMACOLOGICAL AND/OR GENETIC ACTIVATOR FOR USE IN PRESERVING AND REGENERATING MUSCLE STRUCTURE AND FUNCTION BY BLOCKING SENESCENCE” (ASSOCIATION FRANCAISE CONTRE LES MYOPATHIES, priority 2021, published 2024)
